Results taken from patent US20230172874A1, “USE OF CANNABIDIOL FOR THE TREATMENT OF INSOMNIA ASSOCIATED TO PAIN” (priority 2021, published 2023).
“Also recorded” adds a separate entry of the source.

How the values were obtained:
rats with SNI = test: Mechanical allodynia (von Frey test) after spared nerve injury; format: in vivo, male Wistar rats
Procedure: Animals. The experiments were performed on male Wistar rats weighing 250 g (six weeks). All animals were housed in standardized animal facilities under a 12 h light/dark cycle (lights on at 7 AM) with ad libitum access to food and water. All surgeries and experimental procedures were performed during the light cycle. Experimental protocols were approved by the Animal Ethics Committee of the local institutional committee for animal use and care (McGill University, Qc, Canada). These protocols follow ethical guidelines for investigation of experimental pain in conscious animals of the IASP, the Canadian Institute of Health Research guidelines for animal care and scientific use.
Spared nerve injury (SNI). SNI was performed according to the method of Decosterd and Woolf^35. Rats were deeply anaesthetized with isofluorane (5%), anaesthesia was confirmed by the absence of a nociceptive reflex reaction to a paw pinch. The sciatic nerve was exposed at mid-thigh level distal to the trifurcation and freed of connective tissue; the three peripheral branches (sural, common peroneal, and tibial nerves) of the sciatic nerve were exposed without stretching nerve structures. Both tibial and common peroneal nerves were ligated and transected together. Carprofen (5 mg/kg) was administrated subcutaneously pre-surgery as well as three days every 24 hours post-surgery as analgesic. After SNI, each rat was housed in its home cage for 15 days until the neuropathy is developed.
Mechanical allodynia. On day 15 after SNI, mechanical allodynia was assessed via von Frey test^38. Rats were placed in a test chamber, and they were allowed to acclimate for 60 minutes. Tactile allodynia was determined by measuring paw withdrawal thresholds in response to mid-plantar hind paw stimuli with Calibrated von Frey filaments^36. These filaments are of a logarithmically incremental stiffness corresponding to an applied force ranging from 0.4 to 15 g. Every filament was applied during 10 seconds in the hind paw to measure the withdrawal threshold. The 2.0 g force filament was applied first; in the presence of a response, the next smaller filament was applied. In the absence of a response, the next higher filament was applied. After the first change in response, the test continued until six responses were collected. The paw withdrawal threshold was then converted to the cutaneous nociceptive threshold by using the “up-down” method^39. The stimulus intensity (filament stiffness) required to produce a response in 50% of the applications for each animal was defined as 50% withdrawal threshold (expressed in g). The 50% withdrawal threshold was determined according to the following equation: 50% Threshold (g)=(10^ [Xf+kδ])/10,000. Where Xf is the value of the last von Frey filament used (in logarithmic units), k is the correction factor based on the response patterns of a calibration table and the tabulated value based on the pattern of positive and negative responses, and δ indicates the average differences between stimuli in logarithmic units^38,39. In non-lesioned animals (naïve) a value 11.98-15 g was considered normal, while the presence of allodynia was considered when the 50% withdrawal threshold of the limb is less than 4 g. All nerve-ligated rats were verified to be allodynic before the experiments. Rats without allodynia were excluded.

neuropathic rats = test: Sleep fragmentation analysis (Sleep Fragmentation Index); format: in vivo, male Wistar rats; conditions: NP rats; CBD 20 mg/kg i.p.; vs NP+VEH
Procedure: Sleep fragmentation analysis. Sleep Fragmentation Index (SFI) is determinant of excessive daytime sleepiness as it is characterized by repetitive short interruptions of sleep by periods of wakefulness. […] In this study, SFI is calculated as the total number of wakefulness episodes in 24 h divided by the total sleep time in hours during 24 h (REM+NREM).

rats = conditions: cited from earlier work

## C=C(C)[C@@H]1CCC(C)=C[C@H]1c1c(O)cc(CCCCC)cc1O [CBD, 2-[(1R,6R)-3-methyl-6-prop-1-en-2-ylcyclohex-2-en-1-yl]-5-pentylbenzene-1,3-diol]
Rats with SNI; 10 mg/kg vs 20 mg/kg
  AUC of the antiallodynic effect: not statistically different
Rats with SNI; 20 mg/kg group vs CBD 5 mg/kg (p<0.001) and vs vehicle (p<0.001)
  AUC of the antiallodynic effect: significantly higher
Rats with SNI; SNI rats, 5 mg/kg i.p.
  antiallodynic effect: did not show any antiallodynic effect
Rats with SNI; SNI rats, 10 mg/kg i.p., between 2 h and 4.5 h (p<0.05)
  reversal of mechanical allodynia: able to reverse mechanical allodynia
Rats with SNI; SNI rats, 20 mg/kg i.p., between 1 h and 5 h (p<0.05)
  reversal of mechanical allodynia: able to reverse mechanical allodynia
Rats with SNI; SNI rats, CBD 5, 10 and 20 mg/kg intraperitoneally, 0.5-7.5 hours, vs vehicle
  paw withdrawal threshold / mechanical allodynia, dose dependence: increasing the paw withdrawal threshold in a dose-dependent manner; also recorded: reduces mechanical allodynia in a dose-dependent manner; also recorded: reduces neuropathic pain
Rats with SNI; SNI rats, CBD i.p.
  duration of antiallodynic effects post-administration: up to 4 hours
Neuropathic rats
  sleep fragmentation (sleep fragmentation index, SFI): decrease of the sleep fragment index (SFI) to normal levels; also recorded: attenuates the sleep fragmentation
rats; CBD dose of 40 mg/kg
  increase in SWS duration: not statistically significant
rats; CBD doses of 10 and 40 mg/kg
  total percentage of sleep: significantly increased
